Test results taken from patent publication US20240390438A1, “PROBIOTICS SEPARATED FROM RABBIT FECES AND FOOD CONTAINING PROBIOTICS” (AGENT Innovation Co., Ltd., priority 2021, published 2024).
≈ marks a conversion by molar mass, not a printed value. Where two headings read alike, the source gives them in different places.

Legend:
Colony LP19 = experiment: Antibiotic susceptibility test; format: cell-based, Lactiplantibacillus Plantarum; settings: for MIC: Lactiplantibacillus plantarum, LP19, 24 h
Description: (§1) To test bacterial susceptibility to antibiotics, such as Aminoglycosides antibiotics, Sulfonamide antibiotics, Quinolone antibiotics, Ampicillin, Cefotaxime, Chloramphenicol, Erythromycin, Rifampicin and Tetracycline, the experimental protocol were as follow. Further, the Quinolone antibiotics comprise Ciprofloxacin, the Aminoglycosides antibiotics comprise Kanamycin and […], and the Sulfonamide antibiotics comprise Sulfamethoxazole. […] The initial absorbance at 600 nm (OD600) of each well was recorded. Then, the 96-well plates were placed at 37° C. and cultured for 24 hours. Next, the OD600 of each well was measured again to determine minimum inhibitory concentration.

Colony LP1 = experiment: Antibiotic susceptibility test; format: cell-based, Lactiplantibacillus Plantarum; settings: for MIC: Lactiplantibacillus plantarum, LP1, 24 h
Description: as §1

Colony LP2 = experiment: Antibiotic susceptibility test; format: cell-based, Lactiplantibacillus Plantarum; settings: for MIC: Lactiplantibacillus plantarum, LP2, 24 h, read-out: Minimum inhibitory concentration of the antibiotic to LP2
Description: as §1

Colony LP5 = experiment: Antibiotic susceptibility test; format: cell-based, Lactiplantibacillus Plantarum; settings: for MIC: Lactiplantibacillus plantarum, LP5, 24 h
Description: as §1

Colony PTA22 = experiment: Antibiotic susceptibility test; format: cell-based, Lactiplantibacillus Plantarum; settings: for MIC: Lactiplantibacillus plantarum, PTA22, 24 h
Description: as §1

L. pl 24-2L = settings: from Georgieva et al., 2015; cited from earlier work
L. pl 24-5D = settings: from Georgieva et al., 2015; cited from earlier work
L. plantarum 299 = settings: from Klarin et al., 2019; cited from earlier work
L. plantarum 299v = settings: from Klarin et al., 2019; cited from earlier work
species L. plantarum = settings: EFSA (2005); cited from earlier work
Bacillus cereus = experiment: Minimum inhibitory concentration and minimum bacterial concentration; format: cell-based; settings: antibiotics
Experimental: (§2) Minimum inhibitory concentration (MIC) refers to the minimum concentration at which the development of bacteria can be blocked and antibacterial resistance can be observed after cultured. The lower MIC means the better effect on bacteria.
(§3) The supernatants of the cultured colonies described above were collected, as cell-free solutions (CFSs), by centrifuge at 5000 rpm after cultured the colonies in a nutrient broth and shaking at 37° C. for 48 hours.
(§4) Next, 100 μL each of the CFSs and 100 μL bacterial solutions of the pathogenic bacteria were respectively added to each well of a 96-well plate. Thus, the total volume in each well was 200 μL. The tested pathogenic bacteria included Salmonella enterica, Shigella sonnei, Klebsiella pneumoniae, Streptococcus pneumoniae, Bacillus cereus, Staphylococcus aureus, Pseudomonas aeruginosa, and Escherichia coli.
(§5) As well, 100 μL each of the nutrient broth containing Ampicillin or Kanamycin and 100 μL bacterial solutions of the pathogenic bacteria were respectively added to each well of a 96-well plate. Thus, the total volume in each well was 200 μL.
(§6) Then, initial values of OD600 in each well were recorded. Subsequently, the 96-well plates were cultured at 37° C. for 24 hours, and the OD600 values thereof were re-recorded for determining the MICs of each colony described above.
(§7) Finally, 100 μL CFSs of the next three concentrations […] MIC were taken to be plated on nutrient agar and then cultured at 37° C. for 48-72 hours. The concentrations of the CFSs that no colonies grown on nutrient agar were determined to be the minimum bacterial concentration (MBCs).

Escherichia coli (ETEC) = experiment: as above; format: cell-based; settings: antibiotics
Experimental: as §2, §3, §4, §5, §6, §7

Klebsiella pneumoniae = experiment: as above; format: cell-based; settings: antibiotics
Experimental: as §2, §3, §4, §5, §6, §7

Pseudomonas aeruginosa = experiment: as above; format: cell-based; settings: antibiotics
Experimental: as §2, §3, §4, §5, §6, §7

Shigella sonnei = experiment: as above; format: cell-based; settings: antibiotics
Experimental: as §2, §3, §4, §5, §6, §7

Staphylococcus aureus = experiment: as above; format: cell-based; settings: antibiotics
Experimental: as §2, §3, §4, §5, §6, §7

Streptococcus pneumoniae = experiment: as above; format: cell-based; settings: antibiotics
Experimental: as §2, §3, §4, §5, §6, §7

[1] = read-out: Minimum inhibitory concentration of the antibiotic to LP19, 96-well, 37 C 24 h, OD600
[2] = read-out: Minimum inhibitory concentration of the antibiotic to LP1, 96-well, 37 C 24 h, OD600
[3] = read-out: Minimum inhibitory concentration of the antibiotic to LP5, 96-well, 37 C 24 h, OD600
[4] = read-out: Minimum inhibitory concentration of the antibiotic to PTA22, 96-well, 37 C 24 h, OD600
[5] = plated on nutrient agar 48-72 h

O=C(N[C@H](CO)[C@H](O)c1ccc([N+](=O)[O-])cc1)C(Cl)Cl [Chloramphenicol]
MIC (Colony LP19; [1]): 16 µg/mL (≈ 49.5 µM)
MIC (Colony LP1; [2]): 8 µg/mL (≈ 24.8 µM)
MIC (Colony LP2; 96-well, 37 C 24 h, OD600): 8 µg/mL (≈ 24.8 µM)
MIC (Colony LP5; [3]): 16 µg/mL (≈ 49.5 µM)
MIC (Colony PTA22; [4]): 32 µg/mL (≈ 99 µM)
Minimum inhibitory concentration of the antibiotic to L. pl 24-2L (L. pl 24-2L): 4 µg/mL
Minimum inhibitory concentration of the antibiotic to L. pl 24-5D (L. pl 24-5D): 6 µg/mL
Minimum inhibitory concentration of the antibiotic to L. plantarum 299 (L. plantarum 299): 2 µg/mL
Minimum inhibitory concentration of the antibiotic to L. plantarum 299v (L. plantarum 299v): 2 µg/mL
EFSA, MIC breakpoints species L. plantarum (species L. plantarum): 8 µg/mL

CCN1CCN(c2cc3c(cc2F)c(=O)c(C(=O)O)cn3C2CC2)CC1 [Enrofloxacin]
MIC (Bacillus cereus; 37 C 24 h, OD600): 8 µg/mL (≈ 22.3 µM)
MBC (Bacillus cereus; [5]): 8 µg/mL (≈ 22.3 µM)
MIC (Escherichia coli (ETEC); 37 C 24 h, OD600): 4 µg/mL (≈ 11.1 µM)
MBC (Escherichia coli (ETEC); [5]): 8 µg/mL (≈ 22.3 µM)
MIC (Klebsiella pneumoniae; 37 C 24 h, OD600): 32 µg/mL (≈ 89 µM)
MBC (Klebsiella pneumoniae; [5]): 32 µg/mL (≈ 89 µM)
MIC (Pseudomonas aeruginosa; 37 C 24 h, OD600): 16 µg/mL (≈ 44.5 µM)
MBC (Pseudomonas aeruginosa; [5]): 16 µg/mL (≈ 44.5 µM)
MIC (Shigella sonnei; 37 C 24 h, OD600): < 0.125 µg/mL
MBC (Shigella sonnei; [5]): < 0.125 µg/mL
MIC (Staphylococcus aureus; 37 C 24 h, OD600): 1 µg/mL (≈ 2.78 µM)
MBC (Staphylococcus aureus; [5]): 1 µg/mL (≈ 2.78 µM)
MIC (Streptococcus pneumoniae; 37 C 24 h, OD600): 0.25 µg/mL (≈ 0.696 µM)
MBC (Streptococcus pneumoniae; [5]): 0.5 µg/mL (≈ 1.39 µM)
MIC (Colony LP19; [1]): 64 µg/mL (≈ 178 µM)
MIC (Colony LP1; [2]): 64 µg/mL (≈ 178 µM)
MIC (Colony LP2; 96-well, 37 C 24 h, OD600): 64 µg/mL (≈ 178 µM)
MIC (Colony LP5; [3]): 64 µg/mL (≈ 178 µM)
MIC (Colony PTA22; [4]): 64 µg/mL (≈ 178 µM)

CN[C@H](CC(C)C)C(=O)N[C@H]1C(=O)N[C@@H](CC(N)=O)C(=O)N[C@H]2C(=O)N[C@H]3C(=O)N[C@H](C(=O)N[C@H](C(=O)O)c4cc(O)cc(O)c4-c4cc3ccc4O)[C@H](O)c3ccc(c(Cl)c3)Oc3cc2cc(c3O[C@@H]2O[C@H](CO)[C@@H](O)[C@H](O)[C@H]2O[C@H]2C[C@](C)(N)[C@H](O)[C@H](C)O2)Oc2ccc(cc2Cl)[C@H]1O [Vancomycin]
Minimum inhibitory concentration of the antibiotic to LP19 (Colony LP19; 96-well, 37 C 24 h, OD600): >256 µg/mL
MIC (Colony LP19; read-out: Minimum inhibitory concentration of the antibiotic to LP19): > 256 µg/mL
Minimum inhibitory concentration of the antibiotic to LP1 (Colony LP1; 96-well, 37 C 24 h, OD600): >256 µg/mL
MIC (Colony LP1; read-out: Minimum inhibitory concentration of the antibiotic to LP1): > 256 µg/mL
Minimum inhibitory concentration of the antibiotic to LP2 (Colony LP2; 96-well, 37 C 24 h, OD600): >256 µg/mL
MIC (Colony LP2): > 256 µg/mL
Minimum inhibitory concentration of the antibiotic to LP5 (Colony LP5; 96-well, 37 C 24 h, OD600): >256 µg/mL
MIC (Colony LP5; read-out: Minimum inhibitory concentration of the antibiotic to LP5): > 256 µg/mL
Minimum inhibitory concentration of the antibiotic to PTA22 (Colony PTA22; 96-well, 37 C 24 h, OD600): >256 µg/mL
MIC (Colony PTA22; read-out: Minimum inhibitory concentration of the antibiotic to PTA22): > 256 µg/mL
Minimum inhibitory concentration of the antibiotic to L. pl 24-2L (L. pl 24-2L): >256 µg/mL
Minimum inhibitory concentration of the antibiotic to L. pl 24-5D (L. pl 24-5D): >256 µg/mL
Minimum inhibitory concentration of the antibiotic to L. plantarum 299 (L. plantarum 299): >256 µg/mL
Minimum inhibitory concentration of the antibiotic to L. plantarum 299v (L. plantarum 299v): >256 µg/mL

CO[C@H]1/C=C/O[C@@]2(C)Oc3c(C)c(O)c4c(O)c(c(/C=N/N5CCN(C)CC5)c(O)c4c3C2=O)NC(=O)/C(C)=C\C=C\[C@H](C)[C@H](O)[C@@H](C)[C@@H](O)[C@@H](C)[C@H](OC(C)=O)[C@@H]1C [Rifampicin]
MIC (Colony LP19; [1]): 2 µg/mL (≈ 2.43 µM)
MIC (Colony LP1; [2]): 1 µg/mL (≈ 1.22 µM)
MIC (Colony LP2; 96-well, 37 C 24 h, OD600): 1 µg/mL (≈ 1.22 µM)
MIC (Colony LP5; [3]): 1 µg/mL (≈ 1.22 µM)
MIC (Colony PTA22; [4]): 2 µg/mL (≈ 2.43 µM)

CO/N=C(\C(=O)N[C@@H]1C(=O)N2C(C(=O)O)=C(COC(C)=O)CS[C@H]12)c1csc(N)n1 [Cefotaxime]
MIC (Colony LP19; [1]): < 0.125 µg/mL
MIC (Colony LP1; [2]): < 0.125 µg/mL
MIC (Colony LP2; 96-well, 37 C 24 h, OD600): < 0.125 µg/mL
MIC (Colony LP5; [3]): < 0.125 µg/mL
MIC (Colony PTA22; [4]): < 0.125 µg/mL
Minimum inhibitory concentration of the antibiotic to L. plantarum 299 (L. plantarum 299): 0.094 µg/mL
Minimum inhibitory concentration of the antibiotic to L. plantarum 299v (L. plantarum 299v): 0.094 µg/mL
